row,Compound,melting point [°C]
1,"COc1c(C)c2c(c(O)c1OC)C(=O)[C@@H]1[C@@H](C)O[C@@H](C)C[C@H]1C2=O [Compound 3, (1R,3S,4aR,10aS)-7,8-Dimethoxy-9-hydroxy-1,3,6-trimethyl-3,4,4a,10a-tetrahydro-1H-naphtho[2,3-c]pyran-5,10-dione]",116 to 117
2,"COC1=C(OC)C(=O)c2c(cc(C)c(C(C)=O)c2O)C1=O [Compound 6, 7-Acetyl-2,3-dimethoxy-8-hydroxy-6-methylnaphthalene-1,4-dione]",146 to 147

# Source: publication PMC10043937, “Pyranonaphthoquinones and Naphthoquinones from the Stem Bark of Ventilago harmandiana and Their Anti-HIV-1 Activity” (Journal of Natural Products, 2023)
